# Where a name gives a salt, the structure may show the parent alone.
# Molecular target: T1, dopamine D3 receptor (Homo sapiens, UniProt P35462)
# T1 construct: host or cells: Chinese Hamster Ovary (CHO) cells, membranes
# Experiment: GTPS scintillation proximity assay (GTPS-SPA), CHO_D3 membranes, antagonist format
# Assay type: biochemical
# Conditions: not given
# Description: (§1) Functional potency of compounds of this invention can be measured by the following GTPS scintillation proximity assay (GTPS-SPA). Cells used in the study are Chinese Hamster Ovary (CHO) Cells. • Cell Line • CHO_D2 • CHO_D3 • Dopamine CHO D3 (Biocat no 1060) transduced with bacmam G0 G-protein (Biocat no 97886)
# (§2) All steps are performed at 4° C. Cell membranes are prepared as follows. Cell pellets are resuspended in 10 volumes of 50 mM HEPES, 1 mM EDTA pH 7.4, using KOH. Cells are homogenised within a glass waring blender for 2 bursts of 15 secs in 200 mls of buffer (50 mM HEPES, 1 mM leupeptin, 25 μg/ml bacitracin, 1 mM EDTA, 1 mM PMSF, 2 μM Pepstatin A). (the latter 2 reagents added as fresh ×100 and ×500 stocks respectively in ethanol). The blender is plunged into ice for 5 mins after the first burst and 10-40 mins after the final burst to allow foam to dissipate. The material is then spun at 500 g for 20 mins and the supernatant spun for 36 mins at 48.000 g. The pellet is resuspended in the same buffer as above but without PMSF and Pepstatin A. The material is then forced through a 0.6 mm needle, made up to the required volume, (usually ×4 the volume of the original cell pellet), aliquoted and stored frozen at −80° C.
# (§3) The final top concentration of test drug is 3 μM in the assay and 11 points serial dilution curves 1:4 in 100% DMSO are carried out using a Biomek FX. The test drug at 1% (0.5 ul) total assay volume (TAV) is added to a solid, white Greiner polypropylene 384-well assay plate. 50% TAV (25 μl) of precoupled (for 60 mins at RT) membranes, 5 μg/well, and Wheatgerm Agglutinin Polystyrene Scintillation Proximity Assay beads (RPNQ0260, Amersham), 0.25 mg/well, in 20 mM HEPES (pH 7.4, 100 mM NaCl, 10 mM MgCl2), 60 μg/mL saponin and 30 uM GDP is added. The third addition is a 20% TAV (10 ul) addition of either buffer, (agonist format) or EC80 final assay concentration of agonist, Quinelorane, prepared in assay buffer (antagonist format). The assay is started by the addition of 29% TAV (15 ul) of GTP[35S] 0.38 nM final (37 MBq/mL, 1160 Ci/mmol, Amersham). After all additions assay plates are spun down for 1 min at 1,000 rpm. The final assay cocktail ([…]) is incubated at room temperature to equilibrate for 3-6 hours before reading on a ViewLux™ (613/55 filter) luminescence imager 5 min/plate.
# (§4) The effect of the test drug over the basal generates fpKi values of test drug are calculated from the IC50 generated by “antagonist format” experiment, using Cheng & Prusoff equation: fKi=IC50/1+([A]/EC50) where: [A] is the concentration of the agonist Quinelorane in the assay and EC50 is the Quinelorane EC50 value obtained in the same experiment. fpKi is defined as −logfKi. • pKi results are only estimated to be accurate to about 0.3-0.5.
# T1 sequence (P35462 whole entry, species assumed): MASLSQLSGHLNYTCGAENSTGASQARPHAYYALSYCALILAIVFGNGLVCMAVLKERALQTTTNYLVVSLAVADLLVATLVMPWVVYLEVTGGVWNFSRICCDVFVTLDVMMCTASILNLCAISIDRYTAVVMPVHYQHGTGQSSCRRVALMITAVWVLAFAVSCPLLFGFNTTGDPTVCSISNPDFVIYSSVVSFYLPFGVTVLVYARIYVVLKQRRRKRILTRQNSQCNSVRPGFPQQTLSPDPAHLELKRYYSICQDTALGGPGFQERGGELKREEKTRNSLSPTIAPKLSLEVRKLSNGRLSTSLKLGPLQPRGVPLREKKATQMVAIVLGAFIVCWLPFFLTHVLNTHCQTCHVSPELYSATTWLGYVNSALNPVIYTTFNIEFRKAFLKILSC
row,Structure (SMILES),Selectivity for D3 over D2 receptors [fold]
1,"Cl.O=c1[nH]c(=O)n(CCCN2C[C@@H]3C[C@]3(c3ccc(C(F)(F)F)cc3)C2)cc1-c1cccs1 [Example E8, 5-(2-thienyl)-1-(3-{(1S,5R)-1-[4-(trifluoromethyl)phenyl]-3-azabicyclo[3.1.0]hex-3-yl}propyl)-2,4(1H,3H)-pyrimidinedione hydrochloride]",100
2,"Cl.O=c1[nH]c(=O)n(CCCN2C[C@@H]3C[C@]3(c3ccc(C(F)(F)F)cc3)C2)cc1-c1ccccc1 [Example E9, 5-phenyl-1-(3-{(1S,5R)-1-[4-(trifluoromethyl)phenyl]-3-azabicyclo-[3.1.0]hex-3-yl}propyl)-2,4(1H,3H)-pyrimidinedione hydrochloride]",199
3,"Cc1ccsc1-c1cn(CCCCN2C[C@@H]3C[C@]3(c3ccc(C(F)(F)F)cc3)C2)c(=O)[nH]c1=O.Cl [Example E16, 5-(3-methyl-2-thienyl)-1-(4-{(1S,5R)-1-[4-(trifluoromethyl)phenyl]-3-azabicyclo[3.1.0]hex-3-yl}butyl)-2,4(1H,3H)-pyrimidinedione hydrochloride]",100
4,"Cl.Cl.O=c1[nH]c(=O)n(CCCN2C[C@@H]3C[C@]3(c3ccc(C(F)(F)F)cc3)C2)cc1-c1cccnc1 [Example E27, 5-(3-pyridinyl)-1-(3-{(1S,5R)-1-[4-(trifluoromethyl)phenyl]-3-azabicyclo[3.1.0]hex-3-yl}propyl)-2,4(1H,3H)-pyrimidinedione dihydrochloride]",251
5,"Cc1cc(-c2cn(CCCCN3C[C@@H]4C[C@]4(c4ccc(C(F)(F)F)cc4)C3)c(=O)[nH]c2=O)ccn1.Cl.Cl [Example E28, 5-(2-methyl-4-pyridinyl)-1-(4-{(1S,5R)-1-[4-(trifluoromethyl)phenyl]-3-azabicyclo[3.1.0]hex-3-yl}butyl)-2,4(1H,3H)-pyrimidinedione dihydrochloride]",316
6,"Cc1cccc(-c2cn(CCCN3C[C@@H]4C[C@]4(c4ccc(C(F)(F)F)cc4)C3)c(=O)[nH]c2=O)n1.Cl.Cl [Example E30, 5-(6-methyl-2-pyridinyl)-1-(3-{(1S,5R)-1-[4-(trifluoromethyl)phenyl]-3-azabicyclo[3.1.0]hex-3-yl}propyl)-2,4(1H,3H)-pyrimidinedione dihydrochloride]",199

# Molecular target: T2, dopamine D2 receptor (Homo sapiens, UniProt P14416)
# T2 construct: expressed in transfected cells; host or cells: Chinese Hamster Ovary (CHO) cells, membranes
# T2 sequence (P14416 whole entry): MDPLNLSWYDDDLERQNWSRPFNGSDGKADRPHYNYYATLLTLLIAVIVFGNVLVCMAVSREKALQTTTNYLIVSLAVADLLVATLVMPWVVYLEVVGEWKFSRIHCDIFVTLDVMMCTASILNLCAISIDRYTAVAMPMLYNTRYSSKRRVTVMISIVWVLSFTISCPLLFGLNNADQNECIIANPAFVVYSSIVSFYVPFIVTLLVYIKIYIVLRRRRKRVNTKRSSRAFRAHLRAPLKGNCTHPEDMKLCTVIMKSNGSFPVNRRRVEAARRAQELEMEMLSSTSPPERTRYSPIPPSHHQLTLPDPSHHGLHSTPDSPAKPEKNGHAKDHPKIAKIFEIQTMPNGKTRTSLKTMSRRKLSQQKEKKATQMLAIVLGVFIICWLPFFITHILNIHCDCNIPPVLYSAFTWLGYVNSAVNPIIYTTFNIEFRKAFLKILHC
# Experiment: GTPS scintillation proximity assay (GTPS-SPA), CHO_D2 membranes
# Assay type: biochemical
# Conditions: up to the highest concentration tested in the assay (3 μM)
# Description: as §1, §2, §3, §4
row,Structure (SMILES),activity in the D2 GTPS-SPA assay
1,"Cc1nc(C)c(-c2cn(CCCN3C[C@@H]4C[C@]4(c4ccc(C(F)(F)F)cc4)C3)c(=O)[nH]c2=O)o1.Cl [Example E41, 5-(2,4-dimethyl-1,3-oxazol-5-yl)-1-(3-{(1S,5R)-1-[4-(trifluoromethyl)phenyl]-3-azabicyclo[3.1.0]hex-3-yl}propyl)-2,4(1H,3H)-pyrimidinedione hydrochloride]",no activity
2,"Cc1nc(C)c(-c2cn(CCCCN3C[C@@H]4C[C@]4(c4ccc(C(F)(F)F)cc4)C3)c(=O)[nH]c2=O)o1.Cl [Example E42, 5-(2,4-dimethyl-1,3-oxazol-5-yl)-1-(4-{(1S,5R)-1-[4-(trifluoromethyl)phenyl]-3-azabicyclo[3.1.0]hex-3-yl}butyl)-2,4(1H,3H)-pyrimidinedione hydrochloride]",no activity
3,"Cl.Cl.O=c1[nH]c(=O)n(CCCN2C[C@@H]3C[C@]3(c3ccc(C(F)(F)F)cc3)C2)cc1-c1ccncc1F [Example E44, 5-(3-fluoro-4-pyridinyl)-1-(3-{(1S,5R)-1-[4-(trifluoromethyl)phenyl]-3-azabicyclo[3.1.0]hex-3-yl}propyl)-2,4(1H,3H)-pyrimidinedione dihydrochloride]",no activity
4,"Cl.Cl.O=c1[nH]c(=O)n(CCCN2C[C@@H]3C[C@]3(c3ccc(C(F)(F)F)cc3)C2)cc1-c1cc(F)cnc1Cl [Example E45, 5-(2-chloro-5-fluoro-3-pyridinyl)-1-(3-{(1S,5R)-1-[4-(trifluoromethyl)phenyl]-3-azabicyclo[3.1.0]hex-3-yl}propyl)-2,4(1H,3H)-pyrimidinedione dihydrochloride]",no activity
5,"Cl.Cl.N#Cc1cccc(-c2cn(CCCN3C[C@@H]4C[C@]4(c4ccc(C(F)(F)F)cc4)C3)c(=O)[nH]c2=O)n1 [Example E47, 6-[2,4-dioxo-1-(3-{(1S,5R)-1-[4-(trifluoromethyl)phenyl]-3-azabicyclo[3.1.0]hex-3-yl}propyl)-1,2,3,4-tetrahydro-5-pyrimidinyl]-2-pyridinecarbonitrile dihydrochloride]",no activity
6,"Cl.Cl.O=c1[nH]c(=O)n(CCCN2C[C@@H]3C[C@]3(c3ccc(C(F)(F)F)cc3F)C2)cc1-c1cccnc1F [Example E48, 5-(2-fluoro-3-pyridinyl)-1-(3-{(1S,5R)-1-[2-fluoro-4-(trifluoromethyl)phenyl]-3-azabicyclo[3.1.0]hex-3-yl}propyl)-2,4(1H,3H)-pyrimidinedione dihydrochloride]",no activity
7,"O=c1[nH]c(=O)n(CCCN2CC3CC3(c3ccc(Cl)cc3)C2)cc1-c1cccnc1F [Example E50, 1-{3-[(1S,5R/1R,5S)-1-(4-chlorophenyl)-3-azabicyclo[3.1.0]hex-3-yl]propyl}-5-(2-fluoro-3-pyridinyl)-2,4(1H,3H)-pyrimidinedione]",no activity
8,"Cc1cc(F)ccc1-c1cn(CCCN2C[C@@H]3C[C@]3(c3ccc(C(F)(F)F)cc3)C2)c(=O)[nH]c1=O [Example E51, 5-(4-fluoro-2-methylphenyl)-1-(3-{(1S,5R)-1-[4-(trifluoromethyl)phenyl]-3-azabicyclo[3.1.0]hex-3-yl}propyl)-2,4(1H,3H)-pyrimidinedione]",no activity
9,"Cc1cc(Cl)ccc1-c1cn(CCCN2C[C@@H]3C[C@]3(c3ccc(C(F)(F)F)cc3)C2)c(=O)[nH]c1=O [Example E53, 5-(4-chloro-2-methylphenyl)-1-(3-{(1S,5R)-1-[4-(trifluoromethyl)phenyl]-3-azabicyclo[3.1.0]hex-3-yl}propyl)-2,4(1H,3H)-pyrimidinedione]",no activity
10,"O=c1[nH]c(=O)n(CCCN2C[C@@H]3C[C@]3(c3ccc(C(F)(F)F)cc3)C2)cc1-c1ccc(Cl)nc1 [Example E59, 5-(6-chloro-3-pyridinyl)-1-(3-{(1S,5R)-1-[4-(trifluoromethyl)phenyl]-3-azabicyclo[3.1.0]hex-3-yl}propyl)-2,4(1H,3H)-pyrimidinedione dihydrochloride]",no activity
11,"Cc1cnc(F)c(-c2cn(CCCN3C[C@@H]4C[C@]4(c4ccc(C(F)(F)F)cc4)C3)c(=O)[nH]c2=O)c1.Cl.Cl [Example E61, 5-(2-fluoro-5-methyl-3-pyridinyl)-1-(3-{(1S,5R)-1-[4-(trifluoromethyl)phenyl]-3-azabicyclo[3.1.0]hex-3-yl}propyl)-2,4(1H,3H)-pyrimidinedione dihydrochloride]",no activity
12,"Cc1ccc(-c2cn(CCCN3C[C@@H]4C[C@]4(c4ccc(C(F)(F)F)cc4)C3)c(=O)[nH]c2=O)c(Cl)n1.Cl.Cl [Example E63, 5-(2-chloro-6-methyl-3-pyridinyl)-1-(3-{(1S,5R)-1-[4-(trifluoromethyl)phenyl]-3-azabicyclo[3.1.0]hex-3-yl}propyl)-2,4(1H,3H)-pyrimidinedione dihydrochloride]",no activity
13,"Cc1ccncc1-c1cn(CCCN2C[C@@H]3C[C@]3(c3ccc(C(F)(F)F)cc3)C2)c(=O)[nH]c1=O.Cl.Cl [Example E64, 5-(4-methyl-3-pyridinyl)-1-(3-{(1S,5R)-1-[4-(trifluoromethyl)phenyl]-3-azabicyclo[3.1.0]hex-3-yl}propyl)-2,4(1H,3H)-pyrimidinedione dihydrochloride]",no activity

# Source: patent US7727988B2, “Azabicyclo[3.1.0]hex-3-yl}alkyl)pyrimidinedione” (Glaxo Group Limited, priority 2006, dated 2010)
